Experimental findings from paper PMC9656702, “Unveiling a New Selenocyanate as a Multitarget Candidate with Anticancer, Antileishmanial and Antibacterial Potential” (Molecules, 2022) are described below.

Converted amounts (≈) assume the structure as drawn. Like-named read-outs stand apart in the source and are kept apart here.

In one assay the test system is H1299. As to the kind of experiment: Antiproliferative MTT assay, H1299 lung cancer cells. It counts as cell-based, human. How it is done: (§1) The antiproliferative activities of the cinnamyl and benzodioxyl derivatives were assessed against six human cell lines of three different types of cancer (colon, lung, and breast) using the 3-(4,5-dimethylthiazol-2-yl)-2,5-diphenyltetrazolium bromide (MTT) assay at seven concentrations for 48 h. The results are expressed as the IC50 values and are outlined in Table 1.
(§2) The cell lines were obtained from the American Type Culture Collection (ATCC). All the cancer cell lines (HT-29, HCT-116, H1299, HTB-54, MDA-MB-231 and MCF-7) and the nontumorigenic cells (184B5) were maintained in RPMI 1640 medium (Gibco), supplemented with 10% fetal bovine serum (FBS; Gibco) and 1% antibiotics (10.00 units/mL penicillin and 10.00 mg/mL streptomycin; Gibco). Cells were preserved in tissue culture flasks at 37 °C and 5% CO2. Culture medium was replaced every three days.
(§3) The cytotoxic effect of each compound was initially tested at seven different concentrations ranging between 0.5 and 100 µM in the cell lines mentioned above. The cells were seeded (1 × 10^4 cells per well) in 96-well plates and incubated at 37 °C and 5% CO2 for 24 h. After attachment, cells were treated with either dimethyl sulfoxide (DMSO) or increasing concentrations of the corresponding selenocompound for 48 h. The effect of the compounds on cell viability was determined by the MTT assay. In brief, 20 µL of MTT (5 mg/mL) was added to each well 2.5 h prior to experiment termination. At the end of the incubation, the medium was removed, and the formazan crystals were dissolved in 50 µL of DMSO. Absorbance was measured at 550 nm on a microplate reader. IC50 values were calculated using OriginPro 8.5.1. software by nonlinear curve fitting. Selectivity indexes were calculated as the ratio of the IC50 values determined for the nonmalignant and the tumoral cells in the breast cell lines (IC50 (184B5)/IC50 (MDA-MB-231) and IC50 (184B5)/IC50 (MCF-7)). Data were obtained from at least three independent experiments performed in triplicates.
On the technique in general: Tetrazolium dyes change colour on reduction, which living cells bring about.

The subject of a further assay is MCF-7. As to the kind of experiment: Antiproliferative MTT assay, MCF-7 breast cancer cells. It counts as cell-based, human. The procedure: as §1, §2, §3
For a further assay, the system named is MDA-MB-231. As to the kind of experiment: Antiproliferative MTT assay, MDA-MB-231 breast cancer cells. It counts as cell-based, human. The procedure:
as §1, §2, §3

Another assay deals with E. coli. Kind of assay: MIC and MBC assay, E. coli. The following applies: Gram-negative; for MBC / MIC: Escherichia coli; for MIC / MIC E. coli: 24 h at 37 °C. The format is cell-based, Escherichia coli. The procedure: (§4) The minimum inhibitory concentration (MIC) and the minimum bactericidal concentration (MBC) values of the selenocompounds were determined in a panel of six bacterial strains as a first approach to assess their antibacterial activity. Thus, the synthesized derivatives were tested against the Gram-negative bacteria Escherichia coli (E. coli), Klebsiella pneumoniae (K. pneumoniae) and Citrobacter freundii (C. freundii); and the Gram-positive bacteria Staphylococcus aureus (S. aureus), Streptococcus faecalis (S. faecalis), and Staphylococcus epidermidis (S. epidermidis). […]
(§5) All the selenocompounds were screened for their in vitro inhibitory activity against three Gram-negative (E. coli, K. pneumoniae and C. freundii) and three Gram-positive (S. aureus, S. faecalis and S. epidermidis) bacteria. Bacterial strains were kindly provided by the Department of Microbiology and Parasitology of the University of Navarra. The bacterial cells were grown in tryptic soy agar (TSA) plates and maintained at 4 °C.
(§6) The compounds were firstly dissolved in DMSO and serially diluted in a 96-well plate in tryptic soy broth (TSB) with eleven concentrations ranging from 400 µg/mL to 0.4 µg/mL with a final volume of 100 µL. Subsequently, 100 µL of a diluted suspension of bacterial cells with an optical density of 0.125 measured at 600 nm in TSB (inoculum of approximately 10^5 CFU/mL) was added to each well and incubated at 37 °C for 24 h. After the incubation period, each well was analyzed for the presence or absence of visual growth of bacterial cells. The lowest concentration of the test compound at which no visible growth occurred was determined as the MIC values. After incubation, 10 µL of the bacterial suspension from each well that presented antibacterial activity was added to divided TSA plates and incubated at 37 °C overnight.

In another assay the test system is C. freundii. Kind of assay: MIC and MBC assay, C. freundii. The format is cell-based, Citrobacter freundii. The following applies: for MIC / MBC: Citrobacter freundii; for MIC: read-out: MIC C. freundii; for MBC: read-out: MBC C. freundii. The procedure: as §4, §5, §6
Another assay concerns HT-29. Kind of assay: Antiproliferative MTT assay, HT-29 colon cancer cells. The format is cell-based, human. The procedure:
as §1, §2, §3

Assay [1] deals with Leishmania infantum promastigotes. Kind of assay: Parasite viability MTT assay, L. infantum promastigotes. The format is cell-based. As to conditions: 48 h. How it is done: The cytotoxic activities of all the derivatives against Leishmania major and Leishmania infantum promastigotes were studied by the MTT assay after exposing the parasites to five different concentrations of each compound for 48 h. Miltefosine and paromomycin, two currently available drugs for the treatment of leishmaniasis, were used as positive controls.
L. major (clone VI, MHOM/IL/80/Friendlin) and L. infantum (BCN-150) promastigotes were grown in continuous stirred M199 1X medium (Sigma, St Louis, MO, USA) at 26 °C supplemented with 25 mM HEPES (pH 7.2), 10% heat-inactivated FBS (Gibco, Gaithersburg, MD, USA), 0.1 mM adenine, 0.0005% (w/v) hemin, 0.0001% (w/v) biotin, 100 UI/mL penicillin and […] streptomycin (Gibco, Gaithersburg, MD, USA). Media were changed before each experiment to achieve exponential growth.
The antileishmanial activity was assessed by the MTT assay as previously described. Briefly, 3 × 10^6 promastigotes of both Leishmania strains were placed into a 96-well plate with supplemented M199 1X medium during their logarithmic growth phase. The parasites were treated with five increasing concentrations of the compounds ranging between 0.1 and 1000 µM at 26 °C for 48 h. At the termination point, 20 µL of MTT (5 mg/mL) was added and further incubated for 4 h. The resultant formazan crystals formed were dissolved in 80 µL of DMSO and the absorbance was measured at 550 nm on a microplate reader. IC50 values were calculated using OriginPro 8.5.1. software by nonlinear curve fitting. Miltefosine and paromomycin were used as reference drugs. Data were obtained from at least three independent experiments performed in triplicates.

The subject of another assay is S. epidermidis. Kind of assay: MIC and MBC assay, S. epidermidis. The format is cell-based, Staphylococcus epidermidis. As to conditions: for MIC / MBC: Staphylococcus epidermidis; for MIC: read-out: MIC S. epidermidis; for MBC: read-out: MBC S. epidermidis. How it is done: as §4, §5, §6
The mark [2] stands for this setting: Homo sapiens, NCI-H1299, 48 h, MTT assay, 48 h, mean ± SD, read-out: IC50 H1299.
The mark [3] stands for this setting: MTT assay, 48 h, mean ± SD, read-out: IC50 H1299.
Setting [4] is: Homo sapiens, MCF7, MTT assay, 48 h, mean ± SD, read-out: IC50 MCF-7.
Setting [5] is: Homo sapiens, MDA-MB-231, MTT assay, 48 h, mean ± SD, read-out: IC50 MDA-MB-231.
Setting [6] is: Homo sapiens, HT-29, 48 h, MTT assay, 48 h, mean ± SD, read-out: IC50 HT-29.
The mark [7] stands for this setting: MTT assay, 48 h, mean ± SD, read-out: IC50 HT-29.
[8] abbreviates: Leishmania infantum, promastigotes, MTT assay, mean ± SD, read-out: IC50 Leishmania infantum.
Where [9] appears, read: MTT assay, 48 h, mean ± SD, read-out: IC50 MCF-7.
[10] abbreviates: MTT assay, 48 h, mean ± SD, read-out: IC50 MDA-MB-231.
Setting [11] is: promastigotes, MTT assay, mean ± SD, read-out: IC50 Leishmania infantum.

In the case of `N#C[Se]C/C=C/c1ccccc1` [Compound 1a, (E)-(3-selenocyanatoprop-1-en-1-yl)benzene], the IC50 (commonly the concentration needed to halve the response being measured) in the assay on H1299 (Homo sapiens, NCI-H1299, 48 h, read-out: IC50 H1299, MTT assay, 48 h, mean ± SD) is above 50 µM; with H1299 (read-out: IC50 H1299, MTT assay, 48 h, mean ± SD) it was 82.5 ± 5.9 µM; with MCF-7 (Homo sapiens, MCF7, 48 h, read-out: IC50 MCF-7, MTT assay, 48 h, mean ± SD), above 50 µM; with MCF-7 (read-out: IC50 MCF-7, MTT assay, 48 h, mean ± SD), 55 ± 2.3 µM; with MDA-MB-231 (Homo sapiens, MDA-MB-231, 48 h, read-out: IC50 MDA-MB-231, MTT assay, 48 h, mean ± SD), above 50 µM; in the assay on MDA-MB-231 (read-out: IC50 MDA-MB-231, MTT assay, 48 h, mean ± SD), 71 ± 10.3 µM. Further, the IC50 is above 50 µM in the assay on HT-29 (Homo sapiens, HT-29, 48 h, read-out: IC50 HT-29, MTT assay, 48 h, mean ± SD); 61.2 ± 9.7 µM in the assay with HT-29 (read-out: IC50 HT-29, MTT assay, 48 h, mean ± SD); below 5 µM in assay [1] (Leishmania infantum, read-out: IC50 Leishmania infantum, promastigotes, MTT assay, 48 h, mean ± SD); 3.3 ± 1.8 µM in assay [1] (read-out: IC50 Leishmania infantum, promastigotes, MTT assay, mean ± SD). The MBC (commonly the smallest concentration meeting the test's criterion for killing) is above 200 µg/mL with E. coli, 100 µg/mL (≈ 450 µM) with C. freundii and 12.5 µg/mL (≈ 56.3 µM) in the assay with S. epidermidis. Moreover, the minimal inhibitory concentration (MIC) – broadly, the lowest concentration that inhibits growth of the organism – in the assay with E. coli was found to be 100 µg/mL (≈ 450 µM); in the assay with C. freundii (24 h), 100 µg/mL (≈ 450 µM); in the assay on S. epidermidis (24 h), 12.5 µg/mL (≈ 56.3 µM).
In the case of `C(=C\c1ccccc1)/C[Se][Se]C/C=C/c1ccccc1` [Compound 1b, 1,2-Dicinnamyldiselenide], the IC50 in the assay on H1299 (setting [2]) is below 40 µM; in the assay with H1299 (setting [3]), 28.7 ± 2.6 µM; with MCF-7 (setting [4]), above 100 µM; with MDA-MB-231 (setting [5]), 56.3 ± 5.3 µM; in the assay with HT-29 (setting [6]), below 40 µM; with HT-29 (setting [7]), 36 ± 5.4 µM. Further, in assay [1] (setting [8]), the IC50 amounted to 39.4 ± 5.1 µM. Also, the minimum inhibitory concentration (MIC) is above 200 µg/mL in the assay with E. coli; above 200 µg/mL in the assay with C. freundii (Gram-negative, 24 h at 37 °C); above 200 µg/mL with S. epidermidis (Gram-positive, 24 h at 37 °C).
`O=C(CC[Se]CC=Cc1ccccc1)[c-]1cccc1.[Fe+2].c1cc[cH-]c1` [Compound 1c, 3-(Cinnamylselanyl)-1-ferrocenylpropan-1-one]: the IC50 in the assay on H1299 (setting [3]) was 70.6 ± 6.6 µM; in the assay on MCF-7 (setting [9]), 18.5 ± 5.4 µM; in the assay on MDA-MB-231 (setting [10]), 32.1 ± 3 µM; with HT-29 (setting [7]), above 100 µM; in assay [1] (setting [11]) it was 23.2 ± 10.7 µM. In the assay on E. coli, the “MIC E. coli” value was above 200 µg/mL. The “MIC C. freundii” value in the assay on C. freundii (Gram-negative, 24 h at 37 °C) is above 200 µg/mL. Further, the “MIC S. epidermidis” value against S. epidermidis (Gram-positive, 24 h at 37 °C) was above 200 µg/mL.
`N#C[Se]Cc1ccc2c(c1)OCO2` [Compound 2a, 5-(Selenocyanatomethyl)benzo[d][1,3]dioxole]: the IC50 is below 12 µM in the assay on H1299 (setting [2]); 11.9 ± 3.7 µM with H1299 (setting [3]); 59.3 ± 6.5 µM in the assay with MCF-7 (setting [4]); 43.8 ± 5.7 µM in the assay on MDA-MB-231 (setting [5]); below 12 µM with HT-29 (setting [6]); 11.9 ± 3.4 µM with HT-29 (setting [7]). Moreover, the concentration for half-maximal inhibition (IC50) in assay [1] (setting [8]) was below 5 µM; in assay [1] (setting [11]), 3.7 ± 0.1 µM. Besides, the MBC with E. coli was found to be 50 µg/mL (≈ 208 µM); in the assay on C. freundii (Gram-negative) it was 100 µg/mL (≈ 416 µM); in the assay on S. epidermidis (Gram-positive) it was 12.5 µg/mL (≈ 52.1 µM). Besides, the minimal inhibitory concentration (MIC) with E. coli turned out to be 50 µg/mL (≈ 208 µM); in the assay on C. freundii (Gram-negative, 24 h at 37 °C), 100 µg/mL (≈ 416 µM); with S. epidermidis (Gram-positive, 24 h at 37 °C), 12.5 µg/mL (≈ 52.1 µM). For the same compound, in the assay with S. epidermidis (Gram-positive, 24 h at 37 °C), the “MIC S. epidermidis” value is at most 25 µg/mL.
Take `O=C(CC[Se]Cc1ccc2c(c1)OCO2)[c-]1cccc1.[Fe+2].c1cc[cH-]c1` [Compound 2c, 3-((Benzo[d][1,3]dioxol-5-ylmethyl)selanyl)-1-ferrocenylpropan-1-one]: the IC50 was found to be 45.2 ± 7.2 µM with H1299 (setting [3]); 14.8 ± 4.3 µM in the assay with MCF-7 (setting [9]); 30.9 ± 1.3 µM with MDA-MB-231 (setting [10]); 21.4 ± 4.3 µM in the assay with HT-29 (setting [7]); 7.2 ± 3.6 µM in assay [1] (setting [11]). For the same compound, in the assay with E. coli, the “MIC E. coli” value was above 200 µg/mL. Also, in the assay on C. freundii (Gram-negative, 24 h at 37 °C), the “MIC C. freundii” value is above 200 µg/mL. Also, the “MIC S. epidermidis” value in the assay on S. epidermidis (Gram-positive, 24 h at 37 °C) is above 200 µg/mL.
